{"source": "patent US20250064773A1", "about": "“TARGETING ERO1 ALPHA WITH AURONE DERIVATIVES” (West Virginia University Board of Governors on behalf of …, priority 2021, published 2025)", "key": {"myeloma cells lines": {"test_system": "myeloma cells lines", "test": "MTT viability assay, myeloma cell lines", "assay_type": "cell-based"}, "ERO1β": {"biological_target": "T1, ERO1β (Homo sapiens, UniProt Q86YB8)", "T1 construct": "endogenous in cells; host or cells: PC-9", "T1 sequence (Q86YB8 34-467)": "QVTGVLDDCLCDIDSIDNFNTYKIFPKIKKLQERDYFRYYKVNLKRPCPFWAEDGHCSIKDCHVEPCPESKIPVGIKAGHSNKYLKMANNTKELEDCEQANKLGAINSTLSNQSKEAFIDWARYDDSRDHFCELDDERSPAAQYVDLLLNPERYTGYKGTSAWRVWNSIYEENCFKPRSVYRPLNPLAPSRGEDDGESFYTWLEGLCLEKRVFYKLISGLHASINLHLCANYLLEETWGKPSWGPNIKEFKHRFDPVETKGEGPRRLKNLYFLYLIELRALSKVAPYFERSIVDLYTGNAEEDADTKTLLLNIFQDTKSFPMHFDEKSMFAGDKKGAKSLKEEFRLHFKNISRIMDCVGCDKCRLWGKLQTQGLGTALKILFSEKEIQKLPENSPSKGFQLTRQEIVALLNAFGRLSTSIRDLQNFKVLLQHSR", "test": "Cellular thermal shift assay (CETSA) in PC-9 cells, ERO1β", "assay_type": "cell-based", "conditions": "100 μM", "description": "To date activity of T151742 towards other flavoenzymes has not been identified at this time. We utilized the Cellular Thermal Shift Assay (CETSA) to determine target engagement of T151742 in vitro using the non-small cell lung cancer (NSCLC) cell line PC-9. The EGFR driven PC-9 cell line was chosen as new treatment strategies are needed in EGFR driven NSCLC as most patients relapse and become resistant to current targeted therapies with development of further mutations such as T790M, C797S as well as emergence of EGFR independent tumors^42, 43. […] First, we determined the aggregation temperature (Tagg) of ERO1α, ERO1β, and LSD-1, which are all FAD dependent enzymes and potential in vitro targets of T15742. […]\nUpon addition of T151742, Tagg was quantified for ERO1α, ERO1β, and LSD-1. Quantification of the average of n=3 independent experiments based on western blot analysis for ERO1α, ERO1β, and LSD-1. […] Cellular viability was determined by MTT assay. n=3 independent experiments performed in quadruplicates. ****p<0.0001; by two-way ANOVA.\nCell Lines: PC-9 cell line used was obtained from Sigma Aldrich and grown in RPMI 1640 medium with 10% fetal bovine serum and 1% penicillin/streptomycin. […] Plate was then read on the BioTek Cytation 5 at 530/590 nm. […]"}}}
{"smiles": "CN(C)c1ccc(/C=C2\\Oc3cc(O)ccc3C2=O)cc1", "note": "[Compound T151742]", "values": [{"measurement": "IC50", "setting": "myeloma cells lines", "value": "7 to 9", "unit": "µM"}, {"measurement": "change of Tagg for ERO1β", "setting": "ERO1β", "value": "did not change"}]}
